Residues, ends and D or L forms follow the SMILES beside them.
Key:
[1] = target: T1, B-RBD (Homo sapiens, UniProt P15056); experiment: QRET assay, Eu-L5URcore binding to B-RBD; conditions: Eu-L5URcore (29 nM), B-RBD twofold dilutions, MT2 quencher, 10 mM HEPES pH 7.4, 10 mM NaCl, 30 min, ~22 °C, time-resolved luminescence, n = 2, read-out: IC50
T1 construct: GST-tagged B-Raf-RBD (residues 155–227 of human B-Raf); GST (N); made in house; host or cells: E. coli BL21 Star (DE3)pLysS
Experimental: The QRET assays were modified from our previously described quenching luminescence assays[69]–[71]. Ac-K-L5URcore was conjugated with nonadentate europium chelate, {2,2′,2′′,2’“-{[4′-(4’“-isothiocyanatophenyl)-2,2′,6′,2′′-terpyridine-6,6′′-diyl]bis(methylene-nitrilo)}tetrakis(acetate)}europium(III) (QRET Technologies, Finland) via the epsilon amine of the N-terminal lysine that was added to the L5UR-core peptide sequence and purified with analytical reverse-phase HPLC. The current homogeneous QRET binding assay is based on the quenching of non-bound Eu-K-L5URcore with MT2 quencher (QRET Technologies), while bound labeled peptide is luminescent. In the assay, purified B-RBD or Gal1 were twofold diluted in an assay buffer containing 10 mM HEPES pH 7.4 and 10 mM NaCl added in 5 μL to a white low-volume, round bottom 384-well plate. Eu-K-L5UR core peptide (29 nM), mixed with MT2 according to the manufacturer’s instructions in the assay buffer supplemented with 0.01% (v/v) Triton X-100, was added in 5 μL volume to wells, and incubated for 30 min at ~22 °C on a shaker. The luminescence was measured with Tecan Spark multimode microplate reader (Tecan, Austria) in time-resolved mode using λexcitation 340 ± 40 nm and λemission 620 ± 10 nm with 800 μs delay and 400 μs window times.

[2] = target: T2, C-RBD (Homo sapiens, UniProt P04049); experiment: Competitive fluorescence polarization, displacement of F-L5UR from C-RBD; format: binding; conditions: F-L5UR (5 nM), C-RBD (200 nM), pH 7.4, 30 min, ~22 °C, n = 3
T2 construct: GST-tagged C-Raf-RBD (residues 50–134 of human C-Raf); GST (N, cleaved yes); made in house; host or cells: E. coli BL21 Star (DE3)pLysS

[3] = target: GST-B-RBD (Homo sapiens, UniProt P15056); experiment: Competitive fluorescence polarization, displacement of F-L5UR from GST-B-RBD; format: binding; conditions: competitive fluorescence polarization with F-L5UR; Fig. 2e: F-L5UR (10 nM), GST-B-RBD (15 µM); method: 5 nM F-L5UR, 200 nM RBD; pH 7.4; 30 min, ~22 °C; n = 3
GST-B-RBD, sequence (P15056 155-227): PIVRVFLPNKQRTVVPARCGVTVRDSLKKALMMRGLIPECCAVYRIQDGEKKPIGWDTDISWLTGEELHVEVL

T1 sequence (P15056 155-227): as above

## CC(=O)N[C@@H](CO)C(=O)N[C@@H](CCCNC(=N)N)C(=O)N[C@@H](CO)C(=O)N[C@@H](CO)C(=O)N[C@@H](CC(C)C)C(=O)N[C@@H](CCCNC(=N)N)C(=O)N[C@@H](CO)C(=O)N[C@@H](CCCNC(=N)N)C(=O)N[C@@H](Cc1c[nH]c2ccccc12)C(=O)NCC(=O)N[C@@H](CCCNC(=N)N)C(=O)N[C@@H](Cc1ccccc1)C(=O)N[C@@H](CC(C)C)C(=O)N[C@@H](CC(C)C)C(=O)N[C@@H](CCC(N)=O)C(=O)N[C@@H](CCCNC(=N)N)C(=O)NCC(=O)N[C@@H](CO)C(=O)N[C@@H](Cc1c[nH]c2ccccc12)C(=O)N[C@H](C(=O)NCC(=O)N1CCC[C@H]1C(=O)N[C@@H](CCCNC(=N)N)C(N)=O)[C@@H](C)O [L5URcore] (Ac-SRSSLRSRWGRFLLQRGSWTGPR-NH2)
[1]
  EC50 (B-RBD binding to Eu-L5URcore): 18 ± 1 µM
[2]
  IC50: 14 ± 6 µM
[3]
  IC50: 41 ± 1 µM

From publication PMC11233548 (Communications Biology, 2024)
